Holding throughout (assay type): physicochemical
Data set [1] in a line: Gravimetric vapour sorption (GVS). Here is the method: Sorption isotherms were obtained using a SMS DVS Intrinsic moisture sorption analyser, controlled by DVS Intrinsic Control software. The sample temperature was maintained at 25° C. by the instrument controls. The humidity was controlled by mixing streams of dry and wet nitrogen, with a total flow rate of 200 ml/min. The relative humidity was measured by a calibrated Rotronic probe (dynamic range of 1.0 — 100% RH), located near the sample. The weight change, (mass relaxation) of the sample as a function of % RH was constantly monitored by a microbalance (accuracy ±0.005 mg). Typically, 20-30 mg of sample was placed in a tared mesh stainless steel basket under ambient conditions. The sample was loaded and unloaded at 40% RH and 25° C. (typical room conditions). A moisture sorption isotherm was performed as outlined below (2 scans per complete cycle). The standard isotherm was performed at 25° C. at 10% RH intervals over a 0-90% RH range. Typically, a double cycle (4 scans) was carried out. Data analysis was carried out within Microsoft Excel using the DVS Analysis Suite. [table]

A short description of data set [2]: Static storage stability at elevated temperature/humidity (XRPD, HPLC).
Data set [3] is described as follows: Intrinsic dissolution rate (IDR) in FaSSGF.
Data set [4] is described as follows: Thermodynamic aqueous solubility. The settings on record: for pH of saturated solution: water, after 24 hours equilibration at 25° C. Here is the method: Aqueous solubility was determined by suspending sufficient compound in 0.5 ml deionized water to give a maximum final concentration of 40 mg/ml of the parent free-form of the compound. The suspension was equilibrated at 25° C., on a Heidolph plate shaker set to 750 rpm for 24 hours. After equilibration, the appearance was noted and the pH of the saturated solution was measured. Samples forming suspensions were centrifuged for 4 min at 13,500 rpm. Samples were then filtered through a glass fiber C filter (particle retention 1.2 μm), before dilution with H2 O as appropriate. Quantitation was by HPLC (see Table 2 for parameters) with reference to a standard solution of approximately 0.15 mg/ml in DMSO. Different volumes of the standard, diluted and undiluted sample solutions were injected. The solubility was calculated using the peak areas determined by integration of the peak found at the same retention time as the principal peak in the standard injection. Analysis was performed on an Agilent HP1100/Infinity II 1260 series system equipped with a diode array detector and using OpenLAB software.

Data set [5] can be described thus: Competitive slurries in different water activity (thermodynamic stability). As to the method:
Competitive slurries of the anhydrous and hydrated forms in different water activity at 50° C. and 5° C. were used to determine the thermodynamic stability relationships.

“Also recorded” adds a separate entry of the source.

For `O=C(NO)c1cnc(N2C[C@@H]3[C@H](C2)[C@H]3NCc2ccc3cc(F)ccc3n2)nc1` [Mesylate Form 1, N-hydroxy 2-{6-[(6-fluoro-quinolin-2-ylmethyl)-amino]-3-aza-bicyclo[3.1.0]hex-3-yl}pyrimidine-5-carboxamide], the “Reversible water uptake by GVS” value in data set [1] (0-90% RH, 25° C.) is 0.35% reversible uptake from 0-90%. In addition, the “Hygroscopicity by GVS” value in data set [1] (25° C.) is “Slightly hygroscopic”. The “XRPD post-GVS (solid form)” value in data set [1] (residue after GVS) is reported as “no change; also recorded: XRPD remains unchanged”. Moreover, the “HPLC purity after static storage” value in data set [2] (25° C./97% RH, 1 week) is given as “no significant drop in purity”; in data set [2] (25° C./97% RH, 14 weeks), 93.5%; in data set [2] (40° C./75% RH, 1 week) it was “no significant drop in purity”; in data set [2] (40° C./75% RH, 14 weeks), “Form 2 (94.7% purity)”. Moreover, the “Solid form by XRPD after static storage” value in data set [2] (25° C./97% RH, 14 weeks) was “Mesylate Form 1”; in data set [2] (25° C./97% RH, 7 days (1 week)), “unchanged; also recorded: No change, Mesylate Form 1”; in data set [2] (40° C./75% RH, 14 weeks), “Mixture of Mesylate Form 1 and Mesylate”; in data set [2] (40° C./75% RH, 7 days (1 week)), “unchanged; also recorded: No change, Mesylate Form 1”. Also, in data set [3] (FaSSGF), the “IDR relative to free base form A” value is reported as roughly 8 times. Besides, in data set [3] (Fasted State Simulated Gastric Fluid), the “IDR in FaSSGF” value is listed as 9.1 mg/min/cm^2. Besides, the solubility at 24 h in data set [4] (thermodynamic from solid, deionized water, 25° C., 24 hours, maximum final concentration 40 mg/ml of parent free-form) came to 40 mg/mL. In addition, the “pH of saturated solution” value in data set [4] is “(pH = 3.2)”; in data set [4] (listed as mesylate), roughly 3.2. The “Water activity (aw) up to which the form is the most stable” value in data set [5] (competitive slurries at 50° C.) is on record as 0.6; in data set [5] (competitive slurries at ° C. (so in the source)), no less than 0.3.

The solubility is the concentration that dissolves in the medium under given conditions.

The values are drawn from patent US20230382888A1, “HDAC INHIBITOR SOLID STATE FORMS” (Viracta Subsidiary, Inc., priority 2020, published 2023).
